Assay [1] has as its system db/db mice. Particulars: for Pancreatic function protecting effect: 0.1 μg/animal; for Pancreatic function protecting effect / Serum insulin level relative to that observed in the negative test: 43rd day of continuous administration; for Serum insulin level relative to that observed in the negative test: 1 μg/animal; for Serum insulin levels on 43rd day of administration: male db/db mice, ELISA.
Experimental: This test was performed in order to evaluate the pancreatic endocrine gland cell function (insulin production ability) protecting action of a compound having the cyclolanostane skeleton by using db/db mice known as a model animal of pancreatic hypofunction or pancreatic tissue dysfunction.
In this test, 6-week old male db/db mice (purchased from Clea Japan, Inc.) were used. These mice were divided into groups, each consisting of 7 animals. Each test sample was dissolved in DMSO, and the concentration was adjusted to 0.1 or 1 μg/mL with physiological saline. The final DMSO concentration was adjusted to 0.2%. The pancreatic disorder model mice were orally administered with 1 mL of the test sample once a day everyday for 42 days with a sonde. The serum insulin level was measured on the 43rd day of the continuous administration by using Lbis insulin mouse ELISA kit (Shibayagi Co., Ltd).

Assay [2] concerns db/db mice. Put plainly: Pancreatic tissue protecting action: number and maximum area of Langerhans islets in pancreatic sections of db/db mice, Test Example 2. Particulars: for Maximum area of Langerhans islets relative to that observed in the negative test / Number of Langerhans islets relative to negative sample-administered mice: 1 μg, 43rd day of continuous administration; for The numbers of Langerhans islets in sections on 43rd day of administration / Maximum area of Langerhans islets on administration: male db/db mice, 1 μg orally once a day for 42 days; for The numbers of Langerhans islets in sections on 43rd day of administration: hematoxylin-eosin stained pancreatic sections; for Maximum area of Langerhans islets on administration: pancreatic sections. Type of assay: in vivo. On the procedure: The final DMSO concentration was adjusted to 0.2%. […] On the 43rd day of the continuous administration, the pancreas was extracted, divided into three portions of upstream, midstream and downstream from the duodenum side, and fixed with a formalin solution, and then paraffin blocks were prepared in a conventional manner. Section slides were prepared from the paraffin blocks, and subjected to hematoxylin-eosin staining. The numbers of Langerhans islets existing on the sections of the 3 position of the pancreas, and area of Langerhans islet having the maximum area on each section were measured by using an ocular micrometer on a microscope (“ECLIPSE E600”, NIKON CORP.).

The mark [3] stands for this setting: 0.1 μg/animal orally once a day for 42 days.
Where [4] appears, read: 1 μg/animal orally once a day for 42 days.

Where two headings read alike, the source gives them in different places.

For `CC(C)CCCC(C)C1CCC2(C)C3CCC4C(C)(C)C(O)CCC45CC35CCC12C` (stereo not shown) [Test sample 1, 9,19-cyclolanostan-3-ol], in the assay with db/db mice [1], the “Pancreatic function protecting effect” value is recorded as “any significant pancreatic function protecting effect was not observed” and the “Serum insulin level relative to that observed in the negative test” value came out at 160%. Also, the “Serum insulin levels on 43rd day of administration” value (“Serum insulin levels on 43rd day” for short) in the assay on db/db mice [1] (setting [3]) came to 1.74 ± 0.26 ng/mL. The “Serum insulin levels on 43rd day” value in the assay on db/db mice [1] (setting [4]) amounted to 3.19 ± 0.78 ng/mL. In the assay with db/db mice [2], the “Maximum area of Langerhans islets relative to that observed in the negative test” value is reported as 1.8 times, the “Number of Langerhans islets relative to negative sample-administered mice” value is on record as 149%, the “The numbers of Langerhans islets in sections on 43rd day of administration” value worked out at 60.0 ± 14.8 piece and the “Maximum area of Langerhans islets on administration” value is 78.6 ± 3.3 × 10^3 μm^2.

Take `C=C(CCC(C)C1CCC2(C)C3CCC4C(C)(C)C(O)CCC45CC35CCC12C)C(C)C` (stereo not shown) [Test sample 2, 24-methylene-9,19-cyclolanostan-3-ol]: in the assay on db/db mice [1], the “Pancreatic function protecting effect” value is given as “any significant pancreatic function protecting effect was not observed” and the “Serum insulin level relative to that observed in the negative test” value worked out at 170%. For the same molecule, in the assay on db/db mice [1] (setting [3]), the “Serum insulin levels on 43rd day” value is 1.94 ± 0.56 ng/mL. Besides, the “Serum insulin levels on 43rd day” value in the assay with db/db mice [1] (setting [4]) was 3.39 ± 1.35 ng/mL. Besides, in the assay on db/db mice [2], the “Maximum area of Langerhans islets relative to that observed in the negative test” value turned out to be 3.1 times, the “Number of Langerhans islets relative to negative sample-administered mice” value is given as 148%, the “The numbers of Langerhans islets in sections on 43rd day of administration” value is 59.6 ± 11.6 piece and the “Maximum area of Langerhans islets on administration” value is 140.0 ± 102.8 × 10^3 μm^2.

The values above are taken from patent US8377894B2, “Drug and food or drink for improving pancreatic functions” (Morinaga Milk Industry Co., Ltd., priority 2005, dated 2013).
